Measured values published in patent US9931331B2 (priority 2013, dated 2018).
Where “and” joins values, the source holds several entries; their conditions need not be identical. Identical values can stand only once. Like-named read-outs stand apart in the source and are kept apart here.

Legend:
[1] = tested on: kidney cancer cell (Caki-1); test: Cell viability (calcein-AM / ethidium homodimer-1), Caki-1; conditions: Homo sapiens, CAKI-1, 24 h
Protocol: (§1) Strains of cervical cancer cell (HeLa), kidney cancer cell (Caki-1), brain tumor cell (T98G), breast cancer cell (MDA-MB 435S), and colon cancer cell (DLD-1), multiple myeloma cell (RPMI-8226), and a strain of normal breast epithelial cell (MCF-10A) were available from ATCC (American Type Culture Collection, USA). The strains of cervical cancer cell (HeLa), kidney cancer cell (Caki-1), brain tumor cell (T98G), breast cancer cell (MDA-MB 435S), and colon cancer cell (DLD-1) were cultured by using a DMEM medium including 10% fetal bovine serum (FBS), 2 mM of L-glutamin, 100 i.u./ml of penicillin, and […] of streptomycin for the culture and maintenance; multiple myeloma cell (RPMI-8226) was cultured by using a RPMI1640 medium including 10% FBS, 100 i.u./ml of penicillin, and […] of streptomycin; and the strain of normal breast epithelial cell (MCF-10A) was cultured by using a mammary epithelial growth medium (MEGM) including a bovine pituitary extract, insulin, human epidermal growth factor, hydrocortisone, and antibiotics, and the culture conditions included 37° C. and 5% CO2 in an incubator.
(§2) Then, the cells were stained by using 2 μM calcein-AM and 4 μM ethidium homodimer-1, and cell viability was measured by using a fluorescent microscope (Axiovert 200M, available from Carl Zeiss, Jena, Germany).

[2] = tested on: cervical cancer cell (HeLa); test: Cell viability (calcein-AM / ethidium homodimer-1), HeLa; conditions: 24 h
Protocol: as §1, §2

in vitro = conditions: human
Protocol: as §1, §2

[3] = tested on: multiple myeloma cell (RPMI-8226); test: Cell viability (calcein-AM / ethidium homodimer-1), RPMI-8226; conditions: Homo sapiens, RPMI-8226, 24 h, read-out: Cell viability
Protocol: as §1, §2

brain tumor cell (T98G) = test: Cell viability (calcein-AM / ethidium homodimer-1), T98G; conditions: 24 h
Protocol: as §1, §2

[4] = tested on: breast cancer cell (MDA-MB 435S); test: Cell viability (calcein-AM / ethidium homodimer-1), MDA-MB 435S; conditions: Homo sapiens, MDA-MB-435S, 24 h
Protocol: as §1, §2

[5] = tested on: colon cancer cell (DLD-1); test: Cell viability (calcein-AM / ethidium homodimer-1), DLD-1; conditions: Homo sapiens, DLD-1, 24 h
Protocol: as §1, §2

[6] = tested on: normal breast epithelial cell (MCF-10A); test: Cell viability (calcein-AM / ethidium homodimer-1), MCF-10A; conditions: MCF-10A, 24 h
Protocol: as §1, §2

[7] = read-out: cell viability decreased
[8] = Homo sapiens, read-out: Cell viability
[9] = Homo sapiens, read-out: cell viability decreased

SMILES: COc1cc(/C=C/C(=O)CC(=O)/C=C/c2ccc(O)c(OC)c2)ccc1O [Curcumin]
- viability at 15 µM ([1]; read-out: Cell viability): 78.5%
- viability at 30 µM ([1]; read-out: Cell viability): 68.2%
- cytotoxicity at 30 µM [1, 7]: ~32%
- viability at 10 µM [2, 8]: 100%
- viability at 20 µM [2, 8]: 91.3%
- cytotoxicity at 20 µM [2, 9]: ~9%
- viability at 24 h, 10 μM (in vitro): 97.7%
- viability at 24 h, 20 μM (in vitro): 95.9%
- viability at 10 µM [3]: 93.6%
- viability at 20 µM [3]: 61.9%
- viability at 10 µM (brain tumor cell (T98G); [8]): 99.7%
- viability at 20 µM (brain tumor cell (T98G); [8]): 96.5%
- viability at 10 µM ([4]; read-out: Cell viability): 70.7%
- viability at 20 µM ([4]; read-out: Cell viability): 58.8%
- cytotoxicity at 20 µM [4, 7]: ~41%
- viability at 20 µM ([5]; read-out: Cell viability): 96.7%
- viability at 30 µM ([5]; read-out: Cell viability): 89%

SMILES: CC1=C(O)C(=O)C=C2C1=CC=C1[C@@]2(C)CC[C@@]2(C)[C@@H]3C[C@](C)(C(=O)O)CC[C@]3(C)CC[C@]12C [Celastrol]
- viability at 1 µM ([1]; read-out: Cell viability): 100%
- viability at 2 µM ([1]; read-out: Cell viability): 69.6%
- cytotoxicity at 2 µM [1, 7]: ~30%
- viability at 0.5 µM ([2]; Homo sapiens, read-out: Cell viability, HeLa, celastrol 0.5 μM alone): 100%
- viability at 1 µM ([2]; Homo sapiens, read-out: Cell viability, HeLa, celastrol 1 μM alone): 88.4%
- cytotoxicity at 1 µM [2, 9]: ~11%
- viability at 24 h, 0.25 μM (in vitro; Cell viability, MCF-10A, celastrol 0.25 μM alone, 24 h): 98.9%
- viability at 24 h, 0.5 μM (in vitro; Cell viability, MCF-10A, celastrol 0.5 μM alone, 24 h): 95.9%
- viability at 0.05 µM [3]: 90.7%
- viability at 0.1 µM [3]: 69%
- viability at 1 µM (brain tumor cell (T98G); Homo sapiens, read-out: Cell viability, T98G, celastrol 1 μM alone): 100%
- viability at 2 µM (brain tumor cell (T98G); Homo sapiens, read-out: Cell viability, T98G, celastrol 2 μM alone): 91.3%
- cytotoxicity at 2 µM (brain tumor cell (T98G); [9]): ~9%
- viability at 0.25 µM ([4]; read-out: Cell viability): 100%
- viability at 0.5 µM ([4]; read-out: Cell viability): 92.5%
- cytotoxicity at 0.5 µM ([4]; read-out: cell viability decreased, MDA-MB 435S, celastrol alone 0.5 μM): ~7%
- viability at 0.5 µM ([5]; read-out: Cell viability): 90.5%
- viability at 1 µM ([5]; read-out: Cell viability): 88.7%
- cytotoxicity at 1 µM [5, 7]: ~11%

SMILES: CC(C)C[C@H](NC(=O)[C@H](CCc1ccccc1)NC(=O)CN1CCOCC1)C(=O)N[C@@H](Cc1ccccc1)C(=O)N[C@@H](CC(C)C)C(=O)[C@@]1(C)CO1 [Carfilzomib]
- viability at 0.05 µM ([1]; read-out: Cell viability): 95.6%
- viability at 0.1 µM ([1]; read-out: Cell viability): 95.2%
- viability at 0.05 µM [2, 8]: 90%
- viability at 0.1 µM [2, 8]: 89.8%
- cytotoxicity at 0.1 µM [2, 9]: ~10%
- viability at 24 h, 50 nM (in vitro): 99.5%
- viability at 24 h, 100 nM (in vitro): 98.1%
- viability at 0.005 µM [3]: 95.8%
- viability at 0.01 µM [3]: 63.4%
- viability at 0.02 µM (brain tumor cell (T98G); [8]): 100%
- viability at 0.04 µM (brain tumor cell (T98G); [8]): 93%
- viability at 0.025 µM ([4]; read-out: Cell viability): 87.1%
- viability at 0.05 µM ([4]; read-out: Cell viability): 84.4%
- cytotoxicity at 0.05 µM [4, 7]: ~15%
- viability at 0.1 µM ([5]; read-out: Cell viability): 98.2%
- viability at 0.2 µM ([5]; read-out: Cell viability): 94.7%

SMILES: CN(C)C(=O)C(CCN1CCC(O)(c2ccc(Cl)cc2)CC1)(c1ccccc1)c1ccccc1 [Loperamide]
- viability at 20 µM ([1]; read-out: Cell viability): 100%
- viability at 40 µM ([1]; read-out: Cell viability): 65.1%
- cytotoxicity at 40 µM [1, 7]: ~35%
- viability at 20 µM ([2]; Homo sapiens, read-out: Cell viability, HeLa, loperamide 20 μM alone): 99.7%
- viability at 40 µM ([2]; Homo sapiens, read-out: Cell viability, HeLa, loperamide 40 μM alone): 75.1%
- cytotoxicity at 40 µM [2, 9]: ~25%
- Cell viability ([2]; loperamide 20 μM alone): 99.81
- viability at 24 h, 10 μM (in vitro; Cell viability, MCF-10A, loperamide 10 μM alone, 24 h): 97.7%
- viability at 24 h, 20 μM (in vitro; Cell viability, MCF-10A, loperamide 20 μM alone, 24 h): 94.6%
- Cell viability ([6]; loperamide 10 μM alone): 95.21 and 100.29 and 95.11
- Cell viability ([6]; loperamide 20 μM alone): 99.25 and 94.65 and 100.37
- viability at 5 µM [3]: 98.6%
- viability at 10 µM [3]: 89.4%
- viability at 10 µM (brain tumor cell (T98G); Homo sapiens, read-out: Cell viability, T98G, loperamide 10 μM alone): 100%
- viability at 20 µM (brain tumor cell (T98G); Homo sapiens, read-out: Cell viability, T98G, loperamide 20 μM alone): 99%
- cytotoxicity at 20 µM (brain tumor cell (T98G); [9]): ~10%
- Cell viability (brain tumor cell (T98G); loperamide 10 μM alone): 94.43
- cancer cell toxicity (brain tumor cell (T98G); loperamide alone up to 20 μM): did not exhibit significant cancer cell toxicity
- viability at 10 µM ([4]; read-out: Cell viability): 100%
- viability at 20 µM ([4]; read-out: Cell viability): 78%
- cytotoxicity at 20 µM ([4]; read-out: cell viability decreased, MDA-MB 435S, loperamide alone 20 μM): ~22%
- viability at 10 µM ([5]; read-out: Cell viability): 100%
- viability at 20 µM ([5]; read-out: Cell viability): 100%
